Assay results published in ChEMBL document CHEMBL1201862, “PubChem BioAssay data set” (2004).
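Dose response: 5 concentrations. Exposure: 48 h. Format: 96-well plates. Endpoint: linear interpolation; highest concentration if not reached. Here, GI50 denotes the concentration required for 50% inhibition of growth.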 Active and inactive are the calls of the source. No stated cut-off is given here; in the data, active = GI50 up to about 1.1 µM and inactive = higher.

Tests used:
Experiment in all cases: NCI anticancer screen, dose series, 48 h
NCI-H226 = test system: NCI-H226
NCI-H460 = test system: NCI-H460
CCRF-CEM = test system: CCRF-CEM
NCI-H522 = test system: NCI-H522
HCT-15 = test system: HCT-15
SK-MEL-2 = test system: SK-MEL-2
DU-145 = test system: DU-145
MCF7 = test system: MCF7
SK-OV-3 = test system: SK-OV-3
KM12 = test system: KM12
HL-60 = test system: HL-60
HCC 2998 = test system: HCC 2998
SW-620 = test system: SW-620
NCI/ADR-RES = test system: NCI/ADR-RES
PC-3 = test system: PC-3
SNB-75 = test system: SNB-75
SN12C = test system: SN12C
MDA-MB-435 = test system: MDA-MB-435
Malme-3M = test system: Malme-3M

SMILES	GI50 (NCI-H226)	GI50 (NCI-H460)	GI50 (CCRF-CEM)	GI50 (NCI-H522)	GI50 (HCT-15) [µM]	GI50 (SK-MEL-2)	GI50 (DU-145)	GI50 (MCF7)	GI50 (SK-OV-3)	GI50 (KM12)	GI50 (HL-60)	GI50 (HCC 2998)	GI50 (SW-620)	GI50 (NCI/ADR-RES)	GI50 (PC-3)	GI50 (SNB-75)	GI50 (SN12C)	GI50 (MDA-MB-435)	GI50 (Malme-3M)
COC1CC(OC2CCC3(C)C(=CCC4C3C(OC(C)=O)C(OC(=O)CC(C)C)C3(C)C(C(C)=O)CCC43O)C2)OC(C)C1OC1CC(OC)C(OC2CC(OC)C(OC3OC(C)C(OC4OC(CO)C(O)C(O)C4O)C(OC)C3O)C(C)O2)C(C)O1 (centres undefined)	> 75 µM (inactive)	> 7.5 µM (inactive)	> 7.5 µM (inactive)	> 75 µM (inactive)	> 75	> 75 µM (inactive)	> 75 µM (inactive)	> 75 µM (inactive)	> 75 µM (inactive)	> 75 µM (inactive)	> 75 µM (inactive)	> 75 µM (inactive)	> 75 µM (inactive)	> 75 µM (inactive)	> 75 µM (inactive)	> 75 µM (inactive)	> 75 µM (inactive)	> 75 µM (inactive)	
COc1ccc(N2C(=O)C3c4[nH]c5c(C)cccc5c4C4CCC(C(C)C)CC4C3C2=O)cc1 (centres undefined)	13.9 µM (inactive)	7.94 µM (inactive)		4.51 µM (inactive)	10	16.7 µM (inactive)	12.2 µM (inactive)	5.02 µM (inactive)	16.4 µM (inactive)	6.75 µM (inactive)		10.3 µM (inactive)	11 µM (inactive)	16.1 µM (inactive)	8.87 µM (inactive)	4.06 µM (inactive)	8.3 µM (inactive)	7.03 µM (inactive)	13.4 µM (inactive)
O=CN1CCN(c2ccc3ccc(O)nc3n2)CC1	> 100 µM (inactive)	> 100 µM (inactive)	> 100 µM (inactive)	51.8 µM (inactive)	> 100	> 100 µM (inactive)	> 100 µM (inactive)	> 100 µM (inactive)	> 100 µM (inactive)	> 100 µM (inactive)	> 100 µM (inactive)	> 100 µM (inactive)	> 100 µM (inactive)	> 100 µM (inactive)	> 100 µM (inactive)	> 100 µM (inactive)	> 100 µM (inactive)	> 100 µM (inactive)	> 100 µM (inactive)
CC(C)C(=O)OCN(C)c1nc(N(C)COC(=O)C(C)C)nc(N(C)COC(=O)C(C)C)n1	41.4 µM (inactive)	21.8 µM (inactive)	22.3 µM (inactive)	18.3 µM (inactive)	21.6	23.2 µM (inactive)	37.5 µM (inactive)	35.6 µM (inactive)		24.2 µM (inactive)	22.3 µM (inactive)		21.6 µM (inactive)	34.8 µM (inactive)	27.7 µM (inactive)	17.8 µM (inactive)	28.4 µM (inactive)	17.8 µM (inactive)	
C=COC(=O)N1C2CCCC(Cl)(C(C)=O)C1CC2 (centres undefined)	> 100 µM (inactive)	> 100 µM (inactive)	13.4 µM (inactive)	> 100 µM (inactive)	> 100	> 100 µM (inactive)	> 100 µM (inactive)	> 100 µM (inactive)	> 100 µM (inactive)	> 100 µM (inactive)		> 100 µM (inactive)	> 100 µM (inactive)	> 100 µM (inactive)	> 100 µM (inactive)	28.2 µM (inactive)	> 100 µM (inactive)	58.9 µM (inactive)	87.5 µM (inactive)
O=C(O)CSC(CC1(c2ccc(Cl)cc2)NC(=O)CS1)c1ccc(Cl)cc1 (centres undefined)		85.5 µM (inactive)	69.3 µM (inactive)	46.2 µM (inactive)	> 100	83.6 µM (inactive)	> 100 µM (inactive)	77.1 µM (inactive)	> 100 µM (inactive)	> 100 µM (inactive)	> 100 µM (inactive)		> 100 µM (inactive)	> 100 µM (inactive)	> 100 µM (inactive)	> 100 µM (inactive)	> 100 µM (inactive)	> 100 µM (inactive)	
